For twelve compounds, minimal effective concentration results are on record in patent US11331369B2, “Endoparasitic depsipeptides” (Zoetis Services LLC, priority 2017, dated 2022).

Molecules are shown by their SMILES.

Assay [1] concerns 4th stage larvae (L4) of Dirofilaria immitis. Put plainly: Dirofilaria immitis, L4 Stage (DiL4) In Vitro Assay. The format is cell-based. The conditions noted are these: Dirofilaria immitis, 72 h, read-out: DiL4 Minimum Effective Dose (MED), approximately 72 hours incubation; L4 larvae assessed for survival or paralysis.
Assay [2] relates to microfilariae of Dirofilaria immitis. Put plainly: Dirofilaria immitis, Microfilaria (DiMF) In vitro Assay. The format is cell-based. Conditions: 72 h, read-out: DiMF Minimum Effective Dose (MED), approximately 72 hours incubation, microfilariae assessed for survival or paralysis.

As for `Cc1nn(Cc2ccc(C[C@H]3OC(=O)[C@H](CC(C)C)N(C)C(=O)[C@@H](C)OC(=O)[C@H](CC(C)C)N(C)C(=O)[C@@H](Cc4ccc(Cn5ncc(OC(C)C)c5C)cc4)OC(=O)[C@H](CC(C)C)N(C)C(=O)[C@@H](C)OC(=O)[C@H](CC(C)C)N(C)C3=O)cc2)cc1OC(C)C` [Example 1a-39, (3S,6R,9S,12R,15S,18R,21S,24R)-3,9,15,21-tetraisobutyl-6-[[4-[(4-isopropoxy-3-methyl-pyrazol-1-yl)methyl]phenyl]methyl]-18-[[4-[(4-isopropoxy-5-methyl-pyrazol-1-yl)methyl]phenyl]methyl]-4,10,12,16,22,24-hexamethyl-1,7,13,19-tetraoxa-4,10,16,22-tetrazacyclotetracosane-2,5,8,11,14,17,20,23-octaone], the minimal effective concentration in assay [1] lay within 0.001 to 0.01 µM; in assay [2], 0.01 to 0.1 µM.
`CC(C)C#Cc1cnn(Cc2ccc(C[C@H]3OC(=O)[C@H](CC(C)C)N(C)C(=O)[C@@H](C)OC(=O)[C@H](CC(C)C)N(C)C(=O)[C@@H](Cc4ccc(Cn5cc(C#CC(C)C)cn5)cc4)OC(=O)[C@H](CC(C)C)N(C)C(=O)[C@@H](C)OC(=O)[C@H](CC(C)C)N(C)C3=O)cc2)c1` [Example 1b-112, (3S,6R,9S,12R,15S,18R,21S,24R)-3,9,15,21-tetraisobutyl-4,6,10,16,18,22-hexamethyl-12,24-bis(4-((4-(3-methylbut-1-yn-1-yl)-1H-pyrazol-1-yl)methyl)benzyl)-1,7,13,19-tetraoxa-4,10,16,22-tetraazacyclotetracosan-2,5,8,11,14,17,20,23-octaone]: the minimal effective concentration in assay [1] is 0.0001 to 0.001 µM; in assay [2] it was 0.01 to 0.1 µM.
As to `CC(C)C[C@H]1C(=O)O[C@H](Cc2ccc(Cn3cc(C#CC4CC4)cn3)cc2)C(=O)N(C)[C@@H](CC(C)C)C(=O)O[C@H](C)C(=O)N(C)[C@@H](CC(C)C)C(=O)O[C@H](Cc2ccc(Cn3cc(C#CC4CC4)cn3)cc2)C(=O)N(C)[C@@H](CC(C)C)C(=O)O[C@H](C)C(=O)N1C` [Example 1b-113, (3S,6R,9S,12R,15S,18R,21S,24R)-6,18-bis(4-((4-(cyclopropylethynyl)-1H-pyrazol-1-yl)methyl)benzyl)-3,9,15,21-tetraisobutyl-4, 10,12,16,22,24-hexamethyl-1,7,13,19-tetraoxa-4,10,16,22-tetraazacyclotetracosan-2,5,8,11,14,17,20,23-octaone], the minimal effective concentration was in the range of 0.0001 to 0.001 µM in assay [1] and 0.01 to 0.1 µM in assay [2].
On to `CC(C)C[C@H]1C(=O)O[C@H](Cc2ccc(Cn3nccc3-c3ccccc3)cc2)C(=O)N(C)[C@@H](CC(C)C)C(=O)O[C@H](C)C(=O)N(C)[C@@H](CC(C)C)C(=O)O[C@H](Cc2ccc(Cn3nccc3-c3ccccc3)cc2)C(=O)N(C)[C@@H](CC(C)C)C(=O)O[C@H](C)C(=O)N1C` [Example 1b-128, (3S,6R,9S,12R,15S,18R,21S,24R)-3,9,15,21-tetraisobutyl-4,6,10,16,18,22-hexamethyl-12,24-bis(4-((5-phenyl-1H-pyrazol-1-yl)methyl)benzyl)-1,7,13,19-tetraoxa-4,10,16,22-tetraazacyclotetracosan-2,5,8,11,14,17,20,23-octaone], for which the minimal effective concentration was in the range of 0.001 to 0.01 µM in assay [1] and 0.01 to 0.1 µM in assay [2].
As to `COc1ccc(-c2ccnn2Cc2ccc(C[C@H]3OC(=O)[C@H](CC(C)C)N(C)C(=O)[C@@H](C)OC(=O)[C@H](CC(C)C)N(C)C(=O)[C@@H](Cc4ccc(Cn5nccc5-c5ccc(OC)cc5)cc4)OC(=O)[C@H](CC(C)C)N(C)C(=O)[C@@H](C)OC(=O)[C@H](CC(C)C)N(C)C3=O)cc2)cc1` [Example 1b-149, (3S,6R,9S,12R,15S,18R,21S,24R)-3,9,15,21-tetraisobutyl-6,18-bis(4-((5-(4-methoxyphenyl)-1H-pyrazol-1-yl)methyl)benzyl)-4,10,12,16,22,24-hexamethyl-1,7,13,19-tetraoxa-4,10,16,22-tetraazacyclotetracosan-2,5,8,11,14,17,20,23-octaone], the minimal effective concentration lay within 0.001 to 0.01 µM in assay [1] and 0.01 to 0.1 µM in assay [2].
The like results for `CC(C)C[C@H]1C(=O)O[C@H](Cc2ccc(Cn3cc(OCC(F)(F)F)cn3)cc2)C(=O)N(C)[C@@H](CC(C)C)C(=O)O[C@H](C)C(=O)N(C)[C@@H](CC(C)C)C(=O)O[C@H](Cc2ccc(Cn3cc(OCC(F)(F)F)cn3)cc2)C(=O)N(C)[C@@H](CC(C)C)C(=O)O[C@H](C)C(=O)N1C` [Example 1b-150, (3S,6R,9S,12R,15S,18R,21S,24R)-3,9,15,21-tetraisobutyl-4,6,10,16,18,22-hexamethyl-12,24-bis(4-((4-(2,2,2-trifluoroethoxy)-1H-pyrazol-1-yl)methyl)benzyl)-1,7,13,19-tetraoxa-4,10,16,22-tetraazacyclotetracosan-2,5,8,11,14,17,20,23-octaone] were, in that order, 0.0001 to 0.001 µM and 0.001 to 0.01 µM.
With `Cc1cnn(Cc2ccc(C[C@H]3OC(=O)[C@H](CC(C)C)N(C)C(=O)[C@@H](C)OC(=O)[C@H](CC(C)C)N(C)C(=O)[C@@H](Cc4ccc(Cn5ncc(C)c5C)cc4)OC(=O)[C@H](CC(C)C)N(C)C(=O)[C@@H](C)OC(=O)[C@H](CC(C)C)N(C)C3=O)cc2)c1C` [Example 1b-152, (3S,6R,9S,12R,15S,18R,21S,24R)-6,18-bis(4-((4,5-dimethyl-1H-pyrazol-1-yl)methyl)benzyl)-3,9,15,21-tetraisobutyl-4,10,12,16,22,24-hexamethyl-1,7,13,19-tetraoxa-4,10,16,22-tetraazacyclotetracosan-2,5,8,11,14,17,20,23-octaone], the minimal effective concentration in assay [1] and in assay [2] was 0.001 to 0.01 µM throughout.
Consider `CC(C)C[C@H]1C(=O)O[C@H](Cc2ccc(Cn3nccc3C3CCCC3)cc2)C(=O)N(C)[C@@H](CC(C)C)C(=O)O[C@H](C)C(=O)N(C)[C@@H](CC(C)C)C(=O)O[C@H](Cc2ccc(Cn3nccc3C3CCCC3)cc2)C(=O)N(C)[C@@H](CC(C)C)C(=O)O[C@H](C)C(=O)N1C` [Example 1b-154, (3S,6R,9S,12R,15S,18R,21S,24R)-6,18-bis(4-((5-cyclopentyl-1H-pyrazol-1-yl)methyl)benzyl)-3,9,15,21-tetraisobutyl-4,10,12,16,22,24-hexamethyl-1,7,13,19-tetraoxa-4,10,16,22-tetraazacyclotetracosan-2,5,8,11,14,17,20,23-octaone], for which the values for the minimal effective concentration in assay [1] and in assay [2] were at most 0.0001 µM and 0.001 to 0.01 µM, respectively.
Regarding `COCc1cnn(Cc2ccc(C[C@H]3OC(=O)[C@H](CC(C)C)N(C)C(=O)[C@@H](C)OC(=O)[C@H](CC(C)C)N(C)C(=O)[C@@H](Cc4ccc(Cn5cc(COC)cn5)cc4)OC(=O)[C@H](CC(C)C)N(C)C(=O)[C@@H](C)OC(=O)[C@H](CC(C)C)N(C)C3=O)cc2)c1` [Example 1b-155, (3S,6R,9S,12R,15S,18R,21S,24R)-3,9,15,21-tetraisobutyl-6,18-bis(4-((4-(methoxymethyl)-1H-pyrazol-1-yl)methyl)benzyl)-4,10,12,16,22,24-hexamethyl-1,7,13,19-tetraoxa-4,10,16,22-tetraazacyclotetracosan-2,5,8,11,14,17,20,23-octaone], the minimal effective concentration in assay [1] and in assay [2] was 0.001 to 0.01 µM throughout.
On to `CC(C)COc1cnn(Cc2ccc(C[C@H]3OC(=O)[C@H](CC(C)C)N(C)C(=O)[C@@H](C)OC(=O)[C@H](CC(C)C)N(C)C(=O)[C@@H](Cc4ccc(Cn5cc(OCC(C)C)cn5)cc4)OC(=O)[C@H](CC(C)C)N(C)C(=O)[C@@H](C)OC(=O)[C@H](CC(C)C)N(C)C3=O)cc2)c1` [Example 1b-172, (3S,6R,9S,12R,15S,18R,21S,24R)-6,18-bis(4-((4-isobutoxy-1H-pyrazol-1-yl)methyl)benzyl)-3,9,15,21-tetraisobutyl-4,10,12,16,22,24-hexamethyl-1,7,13,19-tetraoxa-4,10,16,22-tetraazacyclotetracosan-2,5,8,11,14,17,20,23-octaone], for which the minimal effective concentration in assay [1] is 0.001 to 0.01 µM; in assay [2] it was 0.01 to 0.1 µM.
`CC(C)C[C@H]1C(=O)O[C@H](Cc2ccc(Cn3cc(Oc4nccs4)cn3)cc2)C(=O)N(C)[C@@H](CC(C)C)C(=O)O[C@H](C)C(=O)N(C)[C@@H](CC(C)C)C(=O)O[C@H](Cc2ccc(Cn3cc(Oc4nccs4)cn3)cc2)C(=O)N(C)[C@@H](CC(C)C)C(=O)O[C@H](C)C(=O)N1C` [Example 1b-174, (3S,6R,9S,12R,15S,18R,21S,24R)-3,9,15,21-tetraisobutyl-4,6,10,16,18,22-hexamethyl-12,24-bis(4-((4-(thiazol-2-yloxy)-1H-pyrazol-1-yl)methyl)benzyl)-1,7,13,19-tetraoxa-4,10,16,22-tetraazacyclotetracosan-2,5,8,11,14,17,20,23-octaone]: the minimal effective concentration in assay [1] and in assay [2] was 0.001 to 0.01 µM throughout.
Turning to `CC(C)C[C@H]1C(=O)O[C@H](Cc2ccc(Cn3cc(Oc4ccccn4)cn3)cc2)C(=O)N(C)[C@@H](CC(C)C)C(=O)O[C@H](C)C(=O)N(C)[C@@H](CC(C)C)C(=O)O[C@H](Cc2ccc(Cn3cc(Oc4ccccn4)cn3)cc2)C(=O)N(C)[C@@H](CC(C)C)C(=O)O[C@H](C)C(=O)N1C` [Example 1b-175, (3S,6R,9S,12R,15S,18R,21S,24R)-3,9,15,21-tetraisobutyl-4,6,10,16,18,22-hexamethyl-12,24-bis(4-((4-(pyridin-2-yloxy)-1H-pyrazol-1-yl)methyl)benzyl)-1,7,13,19-tetraoxa-4,10,16,22-tetraazacyclotetracosan-2,5,8,11,14,17,20,23-octaone], the minimal effective concentration in assay [1] and in assay [2] was 0.001 to 0.01 µM throughout.
